{"source": "patent US11591288B2", "about": "“Compositions and methods for treating atherosclerotic cardiovascular disease” (GAVISH-GALILEE BIO APPLICATIONS LTD., priority 2017, dated 2023)", "key": {"[1]": {"test_system": "rePON1", "assay": "rePON1 lactonase activity (dihydrocoumarin assay) after incubation with lyso-DGTS", "assay_type": "biochemical", "details": "for rePON1 lactonase activity: 2 h incubation, 37° C., 3.00 units without lyso-DGTS", "method": "To 200 μl of rePON1 solution (5 μg/ml) in Tris-HCl buffer pH=8.4 was added 1 μl of lyso-DGTS dissolved in dimethyl sulfoxide (DMSO) to a final concentration of 1, 5, 10, 50, and 100 μg/ml. 1 μl DMSO was added to the control rePON1 solution. The mixtures were incubated at 37° C. for 2, 4, 24 or 48 h.\n10 μl from each solution were taken to a UV 96-well microplate containing 90 μl Tris-HCL buffer pH=8.4 with 1 mM CaCl2 (activity buffer) in each well. Then 100 μl dihydrocoumarin, 2 mM in the activity buffer was added (prepared from a stock of 100 mM dihydrocoumarin in DMSO). Dihydrocoumarine hydrolysis rate was measured at 270 nm, once in 25 seconds for 15 minutes, using SpectraMax M2 Reader. Non-enzymatic hydrolysis of dihydrocoumarin was subtracted from the total rate of hydrolysis. One unit of lactonase activity was equal to the hydrolysis of 1 μmol of dihydrocoumarin/min.\nThe effect of lyso-DGTS on lactonase and arylesterase activities of rePON1 was examined. rePON1 (5 μg/ml in Tris buffer pH=8.4) was incubated with different concentrations of lyso-DGTS for 2, 4, 24, and 48 h at 37° C., and its lactonase and aryesterase activities were measured using dihydrocoumarin and phenyl acetate assays, respectively."}, "[2]": {"target": "T1, human serum PON1 (Homo sapiens, UniProt P27169)", "T1 construct": "tissue Industries biologic (Bet-Haemk, Israel); host or cells: human serum", "T1 sequence (P27169 whole entry)": "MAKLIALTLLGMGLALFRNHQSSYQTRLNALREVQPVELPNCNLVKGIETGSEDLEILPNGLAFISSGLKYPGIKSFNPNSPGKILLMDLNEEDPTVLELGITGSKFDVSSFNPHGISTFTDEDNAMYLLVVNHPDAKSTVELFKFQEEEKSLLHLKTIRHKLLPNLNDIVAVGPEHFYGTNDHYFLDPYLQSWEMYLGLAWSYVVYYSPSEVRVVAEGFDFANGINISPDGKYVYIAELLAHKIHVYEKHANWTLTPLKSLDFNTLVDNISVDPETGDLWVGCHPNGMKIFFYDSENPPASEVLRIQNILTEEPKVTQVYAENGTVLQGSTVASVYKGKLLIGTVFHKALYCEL", "assay": "Human serum PON1 lactonase activity (dihydrocoumarin assay)", "assay_type": "biochemical", "details": "4 h, 37° C., 1.8 units without lyso-DGTS", "method": "200 μl of human serum diluted by 20 with phosphate-buffered saline (PBS) (PH=7.6) was incubated with lyso-DGTS at various concentrations (0, 1, 5, 10 and 50 μg/ml) for 4 h at 37° C. Then, 10 μl was taken to measure lactonase activity using the dihydrocoumarine assay.\nThe effect of lyso-DGTS on lactonase activity of human serum PON1 was examined. Human serum was diluted by 20 with PBS buffer and incubated with and without lyso-DGTS at concentrations of 1, 5, 10, and 50 μg/ml for 4 h at 37° C. Lactonase activity of the enzyme was measured using dihydrocoumarin assay. As shown in Example 1, lyso-DGTS increased human serum lactonase activity in a dose dependent manner up to 10 μg/ml, from 1.8 units without lyso-DGTS to 2.16, 2.82, 3.01, and 2.80 units at 1, 5, 10 and 50 μg/ml lyso-DGTS, respectively. The change at 1 μg/ml of lyso-DGTS was not statistically significant (FIG. 2)."}}}
{"smiles": "CC/C=C\\C/C=C\\C/C=C\\C/C=C\\C/C=C\\CCCC(=O)OCC(O)COCCC(C(=O)[O-])[N+](C)(C)C", "note": "(stereo not drawn) [lyso-DGTS, lyso-diacylglyceryltrimethylhornmoserine]", "values": [{"measurement": "rePON1 lactonase activity", "setting": "[1]; 1 μg/ml lyso-DGTS", "result": 4.05, "unit": "units"}, {"measurement": "rePON1 lactonase activity preserved after incubation for 48 h", "setting": "[1]; 1 μg/ml lyso-DGTS", "result": 9, "unit": "%"}, {"measurement": "rePON1 lactonase activity", "setting": "[1]; 5 μg/ml lyso-DGTS", "result": 5.73, "unit": "units"}, {"measurement": "rePON1 lactonase activity preserved after incubation for 48 h", "setting": "[1]; 5 μg/ml lyso-DGTS", "result": 33, "unit": "%"}, {"measurement": "rePON1 lactonase activity", "setting": "[1]; 10 μg/ml lyso-DGTS", "result": 8.10, "unit": "units"}, {"measurement": "rePON1 lactonase activity preserved after incubation for 48 h", "setting": "[1]; 10 μg/ml lyso-DGTS", "result": 49, "unit": "%"}, {"measurement": "rePON1 lactonase activity", "setting": "[1]; 50 μg/ml lyso-DGTS", "result": 11.61, "unit": "units"}, {"measurement": "rePON1 lactonase activity preserved after incubation for 48 h", "setting": "[1]; 50 μg/ml lyso-DGTS", "result": 69, "unit": "%"}, {"measurement": "rePON1 lactonase activity", "setting": "[1]; 100 μg/ml lyso-DGTS", "result": 12.7, "unit": "units"}, {"measurement": "rePON1 lactonase activity preserved after incubation for 48 h", "setting": "[1]; 100 μg/ml lyso-DGTS", "result": 66, "unit": "%"}, {"measurement": "time for which rePON1 lactonase activity is stabilized and preserved", "setting": "[1]; in buffer solution, abolished after 48 h without lyso-DGTS", "result": "at least 48 h"}, {"measurement": "human serum PON1 lactonase activity", "setting": "[2]; 1 μg/ml lyso-DGTS, change not statistically significant", "result": 2.16, "unit": "units"}, {"measurement": "human serum PON1 lactonase activity", "setting": "[2]; 5 μg/ml lyso-DGTS", "result": 2.82, "unit": "units"}, {"measurement": "human serum PON1 lactonase activity", "setting": "[2]; 10 μg/ml lyso-DGTS", "result": 3.01, "unit": "units"}, {"measurement": "human serum PON1 lactonase activity", "setting": "[2]; 50 μg/ml lyso-DGTS", "result": 2.80, "unit": "units"}]}
